Measurements published in paper PMC4648043, “Development of Small-Molecule Trypanosoma brucei N-Myristoyltransferase Inhibitors: Discovery and Optimisation of a Novel Binding Mode” (Chemmedchem, 2015).
Like-named read-outs stand apart in the source and are kept apart here.

Tests used:
TbNMT = target: T1, TbNMT (Trypanosoma brucei brucei, UniProt Q388H8); experiment: biochemical; format: biochemical; conditions: for LE TbNMT (ligand efficiency): calculated as 0.6 ln(IC50)/(heavy atom count); for IC50: mean of two or more determinations
T1 sequence (Q388H8 1-446): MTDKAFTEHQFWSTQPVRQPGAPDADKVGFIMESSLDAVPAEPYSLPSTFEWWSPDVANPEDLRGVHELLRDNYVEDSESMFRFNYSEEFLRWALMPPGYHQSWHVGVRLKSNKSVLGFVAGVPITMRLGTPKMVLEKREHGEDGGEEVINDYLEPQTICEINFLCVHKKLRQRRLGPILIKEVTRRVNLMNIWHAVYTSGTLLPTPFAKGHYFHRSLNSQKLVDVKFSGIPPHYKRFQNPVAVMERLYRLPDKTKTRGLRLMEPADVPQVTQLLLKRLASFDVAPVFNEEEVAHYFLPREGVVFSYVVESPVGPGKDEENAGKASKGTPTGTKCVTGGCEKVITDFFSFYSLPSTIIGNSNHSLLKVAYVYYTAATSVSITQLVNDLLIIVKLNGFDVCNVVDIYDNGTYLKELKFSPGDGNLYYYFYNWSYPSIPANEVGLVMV
Procedure: (§1) Parasite and NMT assays: These were carried out as described previously.[8–10]

hNMT = target: T2, hNMT (Homo sapiens, UniProt P30419); experiment: human NMT enzyme inhibition assay; format: biochemical; conditions: mean of two or more determinations
T2 sequence (P30419 1-496): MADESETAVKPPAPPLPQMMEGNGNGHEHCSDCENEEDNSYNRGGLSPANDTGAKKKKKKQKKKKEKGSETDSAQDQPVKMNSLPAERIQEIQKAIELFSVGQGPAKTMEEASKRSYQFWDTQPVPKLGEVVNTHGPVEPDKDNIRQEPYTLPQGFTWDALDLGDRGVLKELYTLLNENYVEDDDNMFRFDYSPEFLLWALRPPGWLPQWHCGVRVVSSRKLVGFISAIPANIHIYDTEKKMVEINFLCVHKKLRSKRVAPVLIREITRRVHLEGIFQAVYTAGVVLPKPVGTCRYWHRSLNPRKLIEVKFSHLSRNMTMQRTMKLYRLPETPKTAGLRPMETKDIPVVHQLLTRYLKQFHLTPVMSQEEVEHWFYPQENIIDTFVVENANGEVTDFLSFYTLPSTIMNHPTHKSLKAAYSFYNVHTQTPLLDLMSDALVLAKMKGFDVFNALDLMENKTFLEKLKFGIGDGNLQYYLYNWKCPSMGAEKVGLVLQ
Procedure: as §1

T. brucei = T. brucei parasite growth assay; format: cell-based, Trypanosoma brucei; conditions: Trypanosoma brucei; mean of two or more determinations
Procedure: as §1

hMRC5 = experiment: MRC5 cell assay; format: cell-based; conditions: Homo sapiens, mean of two or more determinations

LE TbNMT (ligand efficiency) (TbNMT) | IC50 (TbNMT; read-out: IC50 TbNMT) [µM] | IC50 (hNMT) [µM] | EC50 (T. brucei) [µM] | IC50 (TbNMT; IC50 TbNMT) [µM] | improvement in potency at TbNMT (TbNMT; relative to parent/starting compound) [fold] | SMILES | EC50 (hMRC5) [µM]
0.32 | 18 | > 100 |  |  |  | CC(C)Cc1nc(CN2C(=O)COc3ccccc32)no1 [Compound 29, 4-((5-Isobutyl-1,2,4-oxadiazol-3-yl)methyl)-2H-benzo[b][1,4]oxazin-3(4H)-one] | 
 | > 100 | > 100 |  |  |  | COc1cc(C2SCC(=O)N2c2ccccn2)ccc1O (stereo not shown) [Compound 4, 2-(4-Hydroxy-3-methoxyphenyl)-3-(pyridin-2-yl)thiazolidin-4-one] | 
0.37 | 11 | > 100 |  |  |  | Cc1cc(CN2C(=O)COc3c(Br)cccc32)no1 [Compound 38, 8-Bromo-4-((5-methylisoxazol-3-yl)methyl)-2H-benzo[b][1,4]oxazin-3(4H)-one] | 
 |  |  | 0.15 |  |  | Cc1cc(CN2C(=O)COc3cc(CCCOC4CCNCC4)ccc32)no1 [Compound 43, 4-((5-Methylisoxazol-3-yl)methyl)-7-(3-(piperidin-4-yloxy)propyl)-2H-benzo[b][1,4]oxazin-3(4H)-one] | 22
0.31 | 41 | 69 |  |  |  | Cc1cccc(CN2C(=O)COc3ccccc32)n1 [Compound 31, 4-((6-Methylpyridin-2-yl)methyl)-2H-benzo[b][1,4]oxazin-3(4H)-one] | 
0.33 | 44 | > 100 |  |  |  | Cc1nc(CN2C(=O)COc3ccccc32)cs1 [Compound 24, 4-((2-Methylthiazol-4-yl)methyl)-2H-benzo[b][1,4]oxazin-3(4H)-one] | 
 | > 100 | > 100 |  |  |  | CCN1C(=O)CSC1c1ccc(O)c(OC)c1 (stereo not shown) [Compound 3, 3-Ethyl-2-(4-hydroxy-3-methoxyphenyl)thiazolidin-4-one] | 
 | > 100 | > 100 |  |  |  | Cc1cc(CN2C(=O)COc3ccc(Cl)cc32)no1 [Compound 35, 6-Chloro-4-((5-methylisoxazol-3-yl)methyl)-2H-benzo[b][1,4]oxazin-3(4H)-one] | 
0.38 | 13 | > 100 |  |  |  | CCOC(=O)CCN1C(=O)COc2ccccc21 [Compound 16, Ethyl 3-(3-oxo-2H-benzo[b][1,4]oxazin-4(3H)-yl)propanoate] | 
 | 80 | > 100 |  |  |  | Cn1ccc(CN2C(=O)COc3ccccc32)n1 [Compound 32, 4-((1-Methyl-1H-pyrazol-3-yl)methyl)-2H-benzo[b][1,4]oxazin-3(4H)-one] | 
 | > 100 | > 100 |  |  |  | Cc1noc(CN2C(=O)COc3ccccc32)n1 [Compound 27, 4-((3-Methyl-1,2,4-oxadiazol-5-yl)methyl)-2H-benzo[b][1,4]oxazin-3(4H)-one] | 
 | > 100 | > 100 |  |  |  | COc1cccc(C2SCC(=O)N2Cc2ccco2)c1 (stereo not shown) [Compound 5, 3-(Furan-2-ylmethyl)-2-(3-methoxyphenyl)thiazolidin-4-one] | 
 | > 100 | > 100 |  |  |  | CN(C)C(=O)CN1C(=O)COc2ccccc21 [Compound 19, N,N-Dimethyl-2-(3-oxo-2H-benzo[b][1,4]oxazin-4(3H)-yl)acetamide] | 
0.31 | 24 | > 100 |  |  |  | O=C1COc2ccccc2N1Cc1nc2ccccc2o1 [Compound 22, 4-(Benzo[d]oxazol-2-ylmethyl)-2H-benzo[b][1,4]oxazin-3(4H)-one] | 
 | > 100 | > 100 |  |  |  | Cc1cc(CN2C(=O)C(C)Oc3ccccc32)no1 (stereo not shown) [Compound 34, 2-Methyl-4-((5-methylisoxazol-3-yl)methyl)-2H-benzo[b][1,4]oxazin-3(4H)-one] | 
 | 50 | > 100 |  |  |  | CN(C)C(=O)CCN1C(=O)COc2ccccc21 [Compound 18, N,N-Dimethyl-3-(3-oxo-2H-benzo[b][1,4]oxazin-4(3H)-yl)propanamide] | 
0.37 | 7.1 | > 100 |  |  |  | Cc1cc(CN2C(=O)COc3cc(Cl)ccc32)no1 [Compound 36, 7-Chloro-4-((5-methylisoxazol-3-yl)methyl)-2H-benzo[b][1,4]oxazin-3(4H)-one] | 
 | > 100 |  |  |  |  | O=C(CN1C(=O)COc2ccccc21)N1CCCC1 [Compound 21, 4-(2-Oxo-2-(pyrrolidin-1-yl)ethyl)-2H-benzo[b][1,4]oxazin-3(4H)-one] | 

LE TbNMT (ligand efficiency) (TbNMT) | IC50 (TbNMT; read-out: IC50 TbNMT) [µM] | IC50 (hNMT) [µM] | EC50 (T. brucei) [µM] | IC50 (TbNMT; IC50 TbNMT) [µM] | improvement in potency at TbNMT (TbNMT; relative to parent/starting compound) [fold] | SMILES | EC50 (hMRC5) [µM]
 | > 100 | > 100 |  |  |  | CNC(=O)CN1C(=O)COc2ccccc21 [Compound 20, N-Methyl-2-(3-oxo-2H-benzo[b][1,4]oxazin-4(3H)-yl)acetamide] | 
0.37 | 6.4 | > 100 |  |  |  | Cc1cc(CN2C(=O)COc3cc(Br)ccc32)no1 [Compound 37, 7-Bromo-4-((5-methylisoxazol-3-yl)methyl)-2H-benzo[b][1,4]oxazin-3(4H)-one] | 
0.40 | 7 | > 100 |  |  |  | Cc1nc(CN2C(=O)COc3ccccc32)no1 [Compound 28, 4-((5-Methyl-1,2,4-oxadiazol-3-yl)methyl)-2H-benzo[b][1,4]oxazin-3(4H)-one] | 
0.43 | 2.9 | > 100 |  |  |  | Cc1cc(CN2C(=O)COc3ccccc32)no1 [Compound 23, 4-((5-Methylisoxazol-3-yl)methyl)-2H-benzo[b][1,4]oxazin-3(4H)-one] | 
0.34 | 11 | > 100 |  |  |  | O=C(CCN1C(=O)COc2ccccc21)N1CCCC1 [Compound 17, 4-(3-Oxo-3-(pyrrolidin-1-yl)propyl)-2H-benzo[b][1,4]oxazin-3(4H)-one] | 
 | > 100 | > 100 |  |  |  | CCOC(=O)C(C)N1C(=O)COc2ccccc21 (stereo not shown) [Compound 15, Ethyl 2-(3-oxo-2H-benzo[b][1,4]oxazin-4(3H)-yl)propanoate] | 
0.38 | 22 | > 100 |  |  |  | O=C1COc2ccccc2N1Cc1ccccn1 [Compound 25, 4-(Pyridin-2-ylmethyl)-2H-benzo[b][1,4]oxazin-3(4H)-one] | 
 | > 100 | > 100 |  |  |  | O=C1COc2ccccc2N1Cc1ccncc1 [Compound 26, 4-(Pyridin-4-ylmethyl)-2H-benzo[b][1,4]oxazin-3(4H)-one] | 
 | > 100 | > 100 | > 50 |  |  | O=C1CSC(c2ccccn2)N1c1ccc(Cl)cc1 (stereo not shown) [Compound 10, 3-(4-Chlorophenyl)-2-(pyridin-2-yl)thiazolidin-4-one] | 
0.32 | 32 | > 100 | > 50 |  |  | O=C1CSC(c2ccccn2)N1c1ccccc1Cl (stereo not shown) [Compound 11, 3-(2-Chlorophenyl)-2-(pyridin-2-yl)thiazolidin-4-one] | 
0.33 | 7.6 | > 100 | > 50 |  |  | COc1cc(C2SCC(=O)N2Cc2ccco2)ccc1O (stereo not shown) [Compound 2, 3-(Furan-2-ylmethyl)-2-(4-hydroxy-3-methoxyphenyl)thiazolidin-4-one] | 
0.39 | 5.9 | > 100 | > 50 |  |  | O=C1CSC(c2ccccc2)N1Cc1ccccn1 (stereo not shown) [Compound 12, 2-Phenyl-3-(pyridin-2-ylmethyl)thiazolidin-4-one] | 
0.35 | 31 | 66 |  |  |  | O=C1CSC(c2ccccn2)N1c1ccccc1 (stereo not shown) [Compound 9] | 
0.36 | 13 | > 50 |  |  |  | O=C1CSC(c2ccccn2)N1c1cccc(Cl)c1 (stereo not shown) [Compound 7] | 
0.34 | 9 | 30 |  |  |  | CC(C)Cc1cc(CN2C(=O)COc3ccccc32)no1 [Compound 30, 4-((5-Isobutylisoxazol-3-yl)methyl)-2H-benzo[b][1,4]oxazin-3(4H)-one] | 
 | > 100 | > 100 |  |  |  | O=C1CSC(c2ccccn2)N1c1ccc2ccccc2c1 (stereo not shown) [Compound 8] | 
0.42 |  | > 100 | 14 | 0.27 | 20 | COc1cc(C2SCC(=O)N2Cc2ccccn2)ccc1O (stereo not shown) [Compound 13, 2-(4-Hydroxy-3-methoxyphenyl)-3-(pyridin-2-ylmethyl)thiazolidin-4-one] | 
